Test results reported in patent publication US10130693B2, “Peptides, combination of peptides and scaffolds for use in immunotherapeutic treatment of various cancers” (Immatics Biotechnologies GmbH, priority 2015, dated 2018).

What was measured:
[1] = test system: HLA-A*24; assay: MHC binding assay, UV-ligand exchange with beta2m ELISA (exchange yield), HLA-A*24; set-up: species or system human; settings: binding to HLA-A*24, UV-ligand exchange
Method in brief: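 Peptide–MHC complexes formed by UV-ligand exchange: a UV-cleavable peptide is replaced by the test peptide, and only binders keep the complex stable. Exchange yield read by streptavidin-capture ELISA on reactions diluted 100-fold, detected with HRP anti-β2m (2 ug/ml, 1 h, 37° C) and TMB at 450 nm.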

[2] = test system: CD8+ T cells; assay: In vitro immunogenicity: T-cell priming with aAPCs loaded with HLA-A*24 peptide/MHC and anti-CD28, multimer staining; assay type: cell-based, human; settings: HLA-A*24 peptides
Description: CD8+ T cells were primed using artificial APCs coated with anti-CD28 mAb and HLA-A*24 in complex with SEQ ID NO: 99 peptide (FIG. 5A, left panel), SEQ ID NO: 119 peptide (FIG. 5B, left panel), SEQ ID NO: 142 peptide (FIG. 5C, left panel) and SEQ ID NO: 174 peptide FIG. 5 (D, left panel), respectively. After three cycles of stimulation, the detection of peptide-reactive cells was performed by 2D multimer staining with A*24/SEQ ID NO: 99 (FIG. 5A), A*24/SEQ ID NO: 119 (FIG. 5B), A*24/SEQ ID NO: 142 (FIG. 5C) or A*24/SEQ ID NO: 174 (FIG. 5D). Right panels (FIGS. 5A,5B,5C and 5D) show control staining of cells stimulated with irrelevant A*24/peptide complexes. Viable singlet cells were gated for CD8+ lymphocytes. Boolean gates helped excluding false-positive events detected with multimers specific for different peptides. Frequencies of specific multimer+ cells among CD8+ lymphocytes are indicated.
Generation of pMHC/anti-CD28 coated beads, T-cell stimulations and readout was performed in a highly defined in vitro system using four different pMHC molecules per stimulation condition and 8 different pMHC molecules per readout condition.
The purified co-stimulatory mouse IgG2a anti human CD28 Ab 9.3 (Jung et al., 1987) was chemically biotinylated using Sulfo-N-hydroxysuccinimidobiotin as recommended by the manufacturer (Perbio, Bonn, Germany). Beads used were 5.6 μm diameter streptavidin coated polystyrene particles (Bangs Laboratories, Illinois, USA).
800.000 beads/200 μl were coated in 96-well plates in the presence of 4×12.5 ng different biotin-pMHC, washed and 600 ng biotin anti-CD28 were added subsequently in a volume of 200 μl. Stimulations were initiated in 96-well plates by co-incubating 1×10^6 CD8+ T cells with 2×10^5 washed coated beads in 200 μl TCM supplemented with 5 ng/ml IL-12 (PromoCell) for 3 days at 37° C. Half of the medium was then exchanged by fresh TCM supplemented with 80 U/ml IL-2 and incubating was continued for 4 days at 37° C. This stimulation cycle was performed for a total of three times. For the pMHC multimer readout using 8 different pMHC molecules per condition, a two-dimensional combinatorial coding approach was used as previously described (Andersen et al., 2012) with minor modifications encompassing coupling to 5 different fluorochromes. Finally, multimeric analyses were performed by staining the cells with Live/dead near IR dye (Invitrogen, Karlsruhe, Germany), CD8-FITC antibody clone SK1 (BD, Heidelberg, Germany) and fluorescent pMHC multimers. For analysis, a BD LSRII SORP cytometer equipped with appropriate lasers and filters was used. Peptide specific cells were calculated as percentage of total CD8+ cells. Evaluation of multimeric analysis was done using the FlowJo software (Tree Star, Oregon, USA). In vitro priming of specific multimer+CD8+ lymphocytes was detected by comparing to negative control stimulations.

| Peptide exchange (MHC class I binding score, peptide exchange yield) [1] | Substance | in vitro immunogenicity, Wells positive [%] [2] |
| --- | --- | --- |
| +++ (50%-75% = +++) | 111 (VYVQILQKL; listed as Homo sapiens) [compound 111] | + (<20% = +) |
| +++ (50%-75% = +++) | 112 (IYNFVESKL; listed as Homo sapiens) [compound 112] | +++ (50%-69% = +++) |
| ++++ (>=75% = ++++) | 114 (QYLDGTWSL; listed as Homo sapiens) [compound 114] | +++ (50%-69% = +++) |
| +++ (50%-75% = +++) | 115 (RYLNKSFVL; listed as Homo sapiens) [compound 115] | + (<20% = +) |
| +++ (50%-75% = +++) | 119 (VYRVYVTTF; listed as Homo sapiens) [compound 119] | +++ (50%-69% = +++) |
| ++++ (>=75% = ++++) | 120 (GYIEHFSLW; listed as Homo sapiens) [compound 120] | ++ (20%-49% = ++) |
| +++ (50%-75% = +++) | 122 (EYQARIPEF; listed as Homo sapiens) [compound 122] | ++ (20%-49% = ++) |
| ++++ (>=75% = ++++) | 132 (RYPALFPVL; listed as Homo sapiens) [compound 132] | + (<20% = +) |
| ++++ (>=75% = ++++) | 137 (EYLHNCSYF; listed as Homo sapiens) [compound 137] | + (<20% = +) |
| +++ (50%-75% = +++) | 139 (IFGIFPNQF; listed as Homo sapiens) [compound 139] | ++ (20%-49% = ++) |
| ++++ (>=75% = ++++) | 140 (RYLINSYDF; listed as Homo sapiens) [compound 140] | +++ (50%-69% = +++) |
| +++ (50%-75% = +++) | 142 (VYVDDIYVI; listed as Homo sapiens) [compound 142] | ++++ (>=70% = ++++) |
| ++++ (>=75% = ++++) | 144 (VFASLPGFLF; listed as Homo sapiens) [compound 144] | ++ (20%-49% = ++) |
| ++++ (>=75% = ++++) | 155 (IYKWITDNF; listed as Homo sapiens) [compound 155] | ++ (20%-49% = ++) |
| ++++ (>=75% = ++++) | 156 (YYMELTKLLL; listed as Homo sapiens) [compound 156] | + (<20% = +) |
| +++ (50%-75% = +++) | 157 (DYIPASGFALF; listed as Homo sapiens) [compound 157] | + (<20% = +) |
| +++ (50%-75% = +++) | 158 (IYEETRGVLKVF; listed as Homo sapiens) [compound 158] | + (<20% = +) |
| +++ (50%-75% = +++) | 160 (RYGDGGSSF; listed as Homo sapiens) [compound 160] | + (<20% = +) |
| +++ (50%-75% = +++) | 161 (KYPDIVQQF; listed as Homo sapiens) [compound 161] | + (<20% = +) |
| ++ (20%-49% = ++) | 162 (KYTSYILAF; listed as Homo sapiens) [compound 162] | + (<20% = +) |

| Peptide exchange (MHC class I binding score, peptide exchange yield) [1] | Substance | in vitro immunogenicity, Wells positive [%] [2] |
| --- | --- | --- |
| ++++ (>=75% = ++++) | 163 (RYLTISNLQF; listed as Homo sapiens) [compound 163] | + (<20% = +) |
| +++ (50%-75% = +++) | 164 (HYVPATKVF; listed as Homo sapiens) [compound 164] | + (<20% = +) |
| ++++ (>=75% = ++++) | 166 (FYTLPFHLI; listed as Homo sapiens) [compound 166] | ++++ (>=70% = ++++) |
| +++ (50%-75% = +++) | 167 (RYGFYYVEF; listed as Homo sapiens) [compound 167] | ++++ (>=70% = ++++) |
| +++ (50%-75% = +++) | 168 (RYLEAALRL; listed as Homo sapiens) [compound 168] | +++ (50%-69% = +++) |
| ++++ (>=75% = ++++) | 170 (QYPFHVPLL; listed as Homo sapiens) [compound 170] | +++ (50%-69% = +++) |
| +++ (50%-75% = +++) | 171 (NYEDHFPLL; listed as Homo sapiens) [compound 171] | ++ (20%-49% = ++) |
| ++++ (>=75% = ++++) | 172 (VFIFKGNEF; listed as Homo sapiens) [compound 172] | + (<20% = +) |
| +++ (50%-75% = +++) | 174 (VYEKNGYIYF; listed as Homo sapiens) [compound 174] | ++++ (>=70% = ++++) |
| +++ (50%-75% = +++) | 175 (LYSPVPFTL; listed as Homo sapiens) [compound 175] | + (<20% = +) |
| +++ (50%-75% = +++) | 177 (VYFKAGLDVF; listed as Homo sapiens) [compound 177] | + (<20% = +) |
| +++ (50%-75% = +++) | 179 (TYIPVGLGRLL; listed as Homo sapiens) [compound 179] | +++ (50%-69% = +++) |
| +++ (50%-75% = +++) | 180 (KYLQVVGMF; listed as Homo sapiens) [compound 180] | + (<20% = +) |
| +++ (50%-75% = +++) | 181 (VYPPYLNYL; listed as Homo sapiens) [compound 181] | ++++ (>=70% = ++++) |
| ++++ (>=75% = ++++) | 182 (AYAQLGYLLF; listed as Homo sapiens) [compound 182] | +++ (50%-69% = +++) |
| ++++ (>=75% = ++++) | 186 (VFTTSSNIF; listed as Homo sapiens) [compound 186] | + (<20% = +) |
| +++ (50%-75% = +++) | 190 (LYSELTETL; listed as Homo sapiens) [compound 190] | ++++ (>=70% = ++++) |
| +++ (50%-75% = +++) | 277 (FYTFPFQQL; listed as Homo sapiens) [compound 277] | +++ (50%-69% = +++) |
| +++ (50%-75% = +++) | 344 (EYNSDLHQF; listed as Homo sapiens) [compound 344] | + (<20% = +) |
